Reference: patent publication US20220241249A1, “PHARMACEUTICAL COMPOSITION AND KIT CONTAINING NOVEL PENAM DERIVATIVE OR SALT THEREOF AND ONE OR MORE COMPOUNDS SELECTED FROM beta-LACTAMASE INHIBITORY COMPOUND AND ANTIBACTERIAL COMPOUND OR SALTS THEREOF” (priority 2019, published 2022)
≈ marks a conversion by molar mass, not a printed value.

Key:
Type in all cases: cell-based
[1] = tested on: AmpC-derepressed Pseudomonas aeruginosa mutant strain (S-3028); test: Antibacterial activity evaluation test, MIC by broth microdilution (CLSI); conditions: Pseudomonas aeruginosa
How it was run: (§1)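 MIC (μg/mL) = lowest drug concentration showing no visible bacterial growth after 16–20 h at 35° C. in cation-adjusted Mueller Hinton broth. Inoculum: agar-grown cells at 0.5 McFarland, diluted 10-fold.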

[2] = tested on: CTX-M-15-containing Escherichia coli strain (TK-1747); test: as above; conditions: Escherichia coli
How it was run: as §1

[3] = tested on: GES-19 and GES-20-containing Pseudomonas aeruginosa strain (S-3759); test: as above; conditions: Pseudomonas aeruginosa
How it was run: as §1

[4] = tested on: IMP-1-containing Pseudomonas aeruginosa strain (S-2838); test: as above; conditions: Pseudomonas aeruginosa
How it was run: as §1

[5] = tested on: KPC-2-containing Klebsiella pneumoniae strain (Y-995); test: as above; conditions: Klebsiella pneumoniae
How it was run: as §1

[6] = tested on: NDM-1-containing Klebsiella pneumoniae strain (Y-1007); test: as above; conditions: Klebsiella pneumoniae
How it was run: as §1

[7] = tested on: Pseudomonas aeruginosa strain ATCC27853; test: as above; conditions: Pseudomonas aeruginosa, ATCC27853
How it was run: as §1

[8] = tested on: VIM-2-containing Pseudomonas aeruginosa strain (S-3779); test: as above; conditions: Pseudomonas aeruginosa
How it was run: as §1

[9] = tested on: Klebsiella pneumoniae ATCC13883 strain (Klebsiella pneumoniae A); test: Combinational effect of test compound and antibacterial compound, checkerboard FIC index
Experimental: (§2) By using a broth microdilution method, the combinational effect of antibacterial activity of a test compound and an antibacterial compound was evaluated.
(§3) As bacterial strains, an Escherichia coli ATCC25922 strain (hereinafter, called Escherichia coli A), a Klebsiella pneumoniae ATCC13883 strain (hereinafter, called Klebsiella pneumoniae A), and a Pseudomonas aeruginosa ATCC27853 strain (hereinafter, called Pseudomonas aeruginosa A) were used.
(§4) The minimum inhibitory concentration (hereinafter, called MIC) was measured according to the Clinical and Laboratory Standards Institute (CLSI) standard method by using the following broth microdilution method.
(§5) The bacterial cells that had been cultured overnight on a Mueller Hinton agar medium were scraped off, suspended at a density equivalent to 0.5 McFarland standard. The obtained suspension was diluted at 10 fold, thereby obtaining an inoculum. Cation-adjusted Mueller Hinton media containing only a test compound, containing only an antibacterial compound, or containing a test compound and an antibacterial compound were inoculated with 0.005 mL of the inoculum, and the cells were cultured at 35° C. for 18 to 20 hours. The minimum drug concentration at which the growth of bacteria was not visually observed was defined as MIC (μg/mL).
(§6) The FIC Index is the minimum value calculated by the following formula.
(§7) FIC Index=(MIC value obtained in a case where test compound is used in combination/MIC value obtained in a case where test compound is used alone)+(MIC value obtained in a case where antibacterial compound is used in combination/MIC value obtained in a case where antibacterial compound is used alone)
(§8) In a case where the FIC Index was 0.5 or less, it was decided that the use of two drugs in combination brings about a synergistic effect.
(§9) In a case where the FIC Index was more than 0.5 and 1 or less, it was decided that the use of two drugs in combination brings about an additive effect. (Diagnostic Microbiology and Infectious Disease, 2004, Vol. 49, p. 197)

[10] = tested on: Pseudomonas aeruginosa ATCC27853 strain (Pseudomonas aeruginosa A); test: as above; conditions: for FIC index: Pseudomonas aeruginosa A, checkerboard
Experimental: as §2, §3, §4, §5, §6, §7, §8, §9

[11] = tested on: Escherichia coli TK-1747 strain producing CTX-M-15 (strain A); test: MIC of test compound alone or with β-lactamase inhibitor at 4 μg/mL; conditions: Escherichia coli
Experimental: By using a broth microdilution method, the combinational effect of a test compound and a β-lactamase inhibitor was evaluated.
The evaluation test for antibacterial activity was performed in the same manner as in Test Example 1.
Escherichia coli TK-1747 strain producing CTX-M-15 (hereinafter, called strain A),

[12] = tested on: Klebsiella pneumoniae Y-1020 strain producing KPC-3 and SHV-12 (strain B); test: as above; conditions: for MIC: Klebsiella pneumoniae, Strain B
How it was run: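 Broth microdilution MIC of test compound tested alone or combined with a β-lactamase inhibitor fixed at 4 μg/mL, against the KPC-3/SHV-12-producing strain.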

[13] = tested on: Escherichia coli TK-3113 strain producing IMP-8 (strain D); test: as above; conditions: Escherichia coli
How it was run: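 Broth microdilution MIC of the test compound, run alone and with a β-lactamase inhibitor fixed at 4 μg/mL. Strains were IMP-8-producing E. coli TK-3113 and other β-lactamase producers, including K. pneumoniae Y-1069 carrying OXA-48 and CTX-M-15.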

[14] = test compound alone (β-lactamase inhibitor N/A)

CC(C)(O/N=C(\C(=O)NC1C(=O)N2C[C@@](C(=O)O)(N3CCN(NC(=O)C(=O)c4ccc(O)c(O)c4Cl)C(=O)C3=O)S[C@H]12)c1csc(N)n1)C(=O)O (stereo partly drawn) [Example 126, (3R,5R,6R)-6-((Z)-2-(2-aminothiazol-4-yl)-2-(((2-carboxypropan-2-yl)oxy)imino)aceta-mido)-3-(4-(2-(2-chloro-3,4-dihydroxy-phenyl)-2-oxoaceta-mido)-2,3-dioxopipera-zin-1-yl)-7-oxo-4-thia-1-azabicyclo[3.2.0]-heptane-3-carboxylic acid]
MIC [1]: 0.5 µg/mL (≈ 0.65 µM)
MIC [2]: < 0.06 µg/mL
MIC [3]: 0.5 µg/mL (≈ 0.65 µM)
MIC [4]: 2 µg/mL (≈ 2.6 µM)
MIC [5]: 0.12 µg/mL (≈ 0.156 µM)
MIC [6]: < 0.06 µg/mL
MIC [7]: 1 µg/mL (≈ 1.3 µM)
MIC [8]: 1 µg/mL (≈ 1.3 µM)
FIC index ([9]; in combination with AMK): 0.75
FIC index ([9]; in combination with CAZ): 0.625
FIC index ([9]; in combination with IPM): 0.375
FIC index ([9]; in combination with LVFX): 0.75
FIC index ([9]; in combination with MPC): 0.188
FIC index ([9]; in combination with PIPC): <0.5
FIC index ([9]; in combination with PL-B): 0.625
FIC index ([9]; in combination with RFP): 0.563
FIC index ([9]; in combination with VCM): <0.625
FIC index ([10]; in combination with AMK): 0.5
FIC index ([10]; in combination with CAZ): 0.563
FIC index ([10]; in combination with IPM): 0.188
FIC index ([10]; in combination with LVFX): 0.188
FIC index ([10]; in combination with PIPC): 0.75
FIC index ([10]; in combination with PL-B): 0.188
FIC index ([10]; in combination with RFP): 0.375
FIC index ([10]; in combination with TC): 0.25
FIC index ([10]; in combination with VCM): 0.266
combinational effect with other antibacterial compounds ([10]; main strains of Gram-negative bacteria, summary of Tables 40 to 42): additive or synergistic effect
MIC ([11]; AVI added at 4 μg/mL): 0.03 µg/mL
MIC ([11]; CVA added at 4 μg/mL): 0.03 µg/mL
MIC ([11]; NAC added at 4 μg/mL): 0.03 µg/mL
MIC ([11]; SBT added at 4 μg/mL): 0.06 µg/mL
MIC ([11]; TAZ added at 4 μg/mL): 0.06 µg/mL
MIC ([11]; ZID added at 4 μg/mL): < 0.015 µg/mL
MIC [11, 14]: 0.12 µg/mL
MIC ([12]; AVI added at 4 μg/mL): 1 µg/mL
MIC ([12]; NAC added at 4 μg/mL): 0.12 µg/mL
MIC ([12]; ZID added at 4 μg/mL): 0.03 µg/mL
MIC [12, 14]: 4 µg/mL
antibacterial activity in combination with a β-lactamase inhibitor versus without ([12]; for all the bacterial strains (strains A to E), summary of Tables 43 to 47): higher antibacterial activity
MIC ([13]; NAC added at 4 μg/mL): 0.03 µg/mL
MIC ([13]; VAB added at 4 μg/mL): 2 µg/mL
MIC ([13]; ZID added at 4 μg/mL): 0.03 µg/mL
MIC [13, 14]: 4 µg/mL
